Here are results for three compounds from patent publication US12622872B2, “Process for the preparation of sterile ophthalmic aqueous fluticasone propionate form a nanocrystals suspensions” (Nicox Ophthalmics, Inc., priority 2019, dated 2026).

Series [1] in a line: In vitro dissolution test (compartment diffusion through dialysis membrane, sink condition). Format: physicochemical. Here is the method: Dissolution profiles of nanocrystals of Fluticasone propionate form A of two nanosuspensions of the invention and of Fluticasone propionate form 1 micronized were performed using a dissolution method.
The study was performed using a compartment diffusion analysis through a dialysis membrane and sink condition. The sink condition was achieved through the use of a receptor fluid containing 30 mM phosphate buffer, pH 7.4 with 5% HPβCD cyclodextrins and also by a complete replacement of the buffer every 24 hours to stay below the saturation point. The saturation point was estimated to be 5 μg/g under those experimental conditions and the measurements performed as well as the buffer replacement have shown a maximum concentration of 1.5 μg/g. The study was conducted at a temperature of 37° C. The details of the dissolution test method are provided below:
A 5-fold dilution with the formulation vehicle (placebo solution containing all the formulation excipients including the surfactants) of two 0.1% w/w Fluticasone propionate form A nanosuspensions was conducted to obtain a final concentration of 0.02% w/w Fluticasone propionate inside the dialysis device.
Fluticasone propionate form 1 micronized was suspended in the same phosphate buffer used in the receiving compartment of the dialysis system.
Fluticasone propionate release was carried at 1-2 RPM. […]
These aliquots were immediately centrifuged and the measurements were performed by HPLC

Series [2] is described as follows: 14-day repeated dose study, plasma toxicokinetics. More on the design: species or system Beagle dogs. To be noted: dog, in vivo. The text has this:
The purpose of this study was to evaluate the toxicokinetic of fluticasone propionate Form A nanosuspensions of the invention (see Table 10 below) administered via topical application directly to the rim (margin) of upper and lower eyelids of both eyes of Beagle dogs.
Fifty naïve Beagle dogs (25 males and 25 females), approximately 5-6 months old and weighing 5.7 to 8.8 kg for males and females at the outset of the study were assigned to treatment groups (groups 1-4) and to vehicle group.
Male and female Beagle dogs were dosed with fluticasone propionate at 1.6, 9.6, and 32 μg/day (bilateral QD topical application) or at 64 μg/day (bilateral BID topical application) via eye lid applicator directly to the upper and lower eyelids of both eyes once or twice daily (minimum of 6 hours between doses) for 14 consecutive days.
Blood for toxicokinetic evaluation was collected from all animals at selected time points on Days 1 and 14.

Where [3] appears, read: 1 h, second nanosuspension (Table 8).
Setting [4] is: 3 h, second nanosuspension (Table 8).
[5] abbreviates: 5 h, second nanosuspension (Table 8).
[6] abbreviates: 19 h, second nanosuspension (Table 8).

Consider `CCC(=O)O[C@]1(C(=O)SCF)[C@H](C)C[C@H]2[C@@H]3C[C@H](F)C4=CC(=O)C=C[C@]4(C)[C@@]3(F)[C@@H](O)C[C@@]21C` [Fluticasone Propionate, fluticasone propionate], for which the “maximum concentration in the receptor fluid” value in series [1] (receptor fluid 30 mM phosphate buffer, pH 7.4 with 5% HPβCD, 37° C.) turned out to be 1.5 µg/g. In series [2], the “Dose dependence of exposure” value is listed as “dose-dependent” and the “Gender-related differences in exposure” value is on record as “no discernable gender-related differences”.
In the case of `CCC(=O)O[C@]1(C(=O)SCF)[C@H](C)C[C@H]2[C@@H]3C[C@H](F)C4=CC(=O)C=C[C@]4(C)[C@@]3(F)[C@@H](O)C[C@@]21C` [Fluticasone propionate form A nanocrystals], the “% Dissolution Average %” value is on record as 0.0% in series [1] (1 h); 0.0% in series [1] (setting [3]); 0.8% in series [1] (3 h); 0.7% in series [1] (setting [4]); 2.2% in series [1] (5 h); 2.3% in series [1] (setting [5]). Besides, the “% Dissolution Average %” value in series [1] (setting [6]) was 19.0%. Besides, the “% Dissolution Tube #1” value in series [1] (1 h) is 0.0%; in series [1] (setting [3]), 0.0%; in series [1] (3 h), 0.2%; in series [1] (setting [4]), 0.6%; in series [1] (5 h), 1.3%; in series [1] (setting [5]), 2.4%. In series [1] (setting [6]), the “% Dissolution Tube #1” value came out at 19.0%. The “% Dissolution Tube #2” value is 0.0% in series [1] (1 h); 0.0% in series [1] (setting [3]); 1.4% in series [1] (3 h); 0.5% in series [1] (setting [4]); 2.8% in series [1] (5 h); 2.0% in series [1] (setting [5]). In series [1] (24 h), the “% Dissolution Tube #2” value is recorded as 24.0%. Besides, the “% Dissolution Tube #3” value in series [1] (1 h) came to 0.0%; in series [1] (setting [3]) it was 0.0%; in series [1] (3 h), 0.7%; in series [1] (setting [4]), 0.8%; in series [1] (5 h), 2.4%; in series [1] (setting [5]), 2.6%. In addition, the “% Dissolution Tube #3” value in series [1] (72 h) amounted to 74.0%. Further, the “dissolution profile compared with Fluticasone propionate form 1 micronized material” value in series [1] (tables 7-9) is on record as “similar”.
As for `CCC(=O)O[C@]1(C(=O)SCF)[C@H](C)C[C@H]2[C@@H]3C[C@H](F)C4=CC(=O)C=C[C@]4(C)[C@@]3(F)[C@@H](O)C[C@@]21C` [Micronized Fluticasone propionate form 1, fluticasone propionate], the figures for the “% Dissolution Average %” value in series [1] (1 h), in series [1] (3 h) and in series [1] (5 h) were 0.0%, 0.7% and 2.6%, respectively. Besides, the “% Dissolution Tube #1” value in series [1] (1 h) was 0.0%; in series [1] (3 h), 0.8%; in series [1] (5 h), 2.9%. Further, the “% Dissolution Tube #2” value in series [1] (1 h) is 0.0%; in series [1] (3 h) it was 0.5%; in series [1] (5 h), 1.9%; in series [1] (48 h), 44.0%. Besides, the “% Dissolution Tube #3” value in series [1] (1 h) was 0.0%; in series [1] (3 h), 0.9%; in series [1] (5 h) it was 3.0%.
